What was measured:
APTK-s.c. tumors = assay: subcutaneous APTK tumors, UA-supplemented diet; assay type: in vivo, C57BL/6 mice
Protocol: Tumors were minced and digested with Tumor & Tissue Dissociation Reagent (BD Horizon) for 30 min. The remaining organ pieces were filtered through a 70 μm cell strainer. Cells were then washed with PBS 1% BSA and 2 mM EDTA. Immune cells were enriched on a 30%/40%/75% Percoll gradient after a 1700 rpm 17 min centrifugation. Then, tumor immune filtrates or activated T cells were stained with Fixable Viability Dye-eF780 (65-0865-14; eBioscience), αCD45-FITC (30-F11; 11-0451-85; eBioscience), αCD11b-BV650 (M1/70; 56340; BD) α-CD11C-BV785 (HL3; 563735; BD), αLy6G-BV605 (53-6.7; 563005; BD), αLy6C-AF700 (HK1.4; 128024; Biolegend), αF4/80-PE (BM8; 12-4801-82, eBioscience), αPD-L1-PECy7 (MIH5; 25-5982-80, eBioscience); or with Fixable Viability Dye-eF780 (ebioscience), αCD45-BV786 (30-F11; 564225; BD), αCD4-BUV496 (GK1.5; 564667; BD), αCD8-BV605 (100744; Biolegend), αPD1-APC (J43; 17-9985-82; eBioscience), αTIM-3-PECy7 (RMT3-23; 119715; Biolegend), αCTLA4-PE (UC10-4B9; 106305; Biolegend) and αLag3-BV421 (C9B7W; 125221, Biolegend); or with Fixable Viability Dye-eF780 (eBioscience), αCD4-FITC (H129.19; 553650; BD), αCD8-APC (53-6.7; 17-0081-83; eBioscience), αCD44-AF400 (IM7; 103026; Biolegend), αCD62L-BV785 (MEL-14; 104440; Biolegend), αSca-1-PerCP-Cy5.5 (D7; 45-5981-82; eBioscience), αCD95-PE (Jo2; 554258; BD); or with Fixable Viability Dye-eF780 (eBioscience), αCD8-BV650 (53-6.7; 563234; BD), αCD4-BUV496 (GK1.5; 564667; BD), αCD127-APC (A7R34; 17-1271-82; eBioscience), αCD95-FITC (SA367H8; 152605; Biolegend), αCD44-AF400 (IM7; 103026; Biolegend), αCD62L-BV785 (MEL-14; 104440; Biolegend), αSca-1-PerCP-Cy5.5 (D7; 45-5981-82; eBioscience) followed by intracellular staining of αTCF1-PE (S33-966; 564217; BD), or PGC-1α (sc-518025; D-5; santa cruz), or αCyclinD1 (MA5-28534, DCS-6; Invitrogen) with transcription factor buffer set kit (BD Biosciences). To study cytokine expression, tumor immune infiltrates were stimulated ex vivo with 20 ng/ml PMA and 1 μg/ml Ionomycin (Sigma) for 3 h in T cell activation medium with Brefeldin A (Biolegend).

T cells = assay: immunoblot, cell fractionation and immunofluorescence of stimulated T cells; assay type: cell-based, mice
Protocol: Activated T cells were incubated on Poly-L-lysine coated coverslips for 10 min at 37° C. and then fixed with 4% PFA for 10 min, followed by permeabilization with 0.25% Triton X-100 for 10 mins. Staining for Pgam5 was performed as previously described (Yamaguchi et al., 2019), using rabbit Anti-Pgam5 antibody (ab126534, Abcam). Immune complexes were detected with 1:200-diluted anti-rabbit IgG Alexa Fluor 488 (Thermo Fisher). Nuclei were counterstained with a DAPI-containing liquid […] mountant (ProLong™ Gold Antifade Mountant, Thermo Fisher). Mitochondria were stained with 200 nM Mitotracker Red for 45 min Image were acquired by confocal microscopy.
5×10^6 isolated T cells were stimulated on cell-culture plates coated with 1:200 α-CD3 (145-2C11; 100339; BioLegend) and α-CD28 (37.51; 102115, Biolegend) for the indicated time points. After centrifugation for 5 mins at 1500 rpm, cell pellets were resuspended in complete protein lysis buffer (50 mM Tris pH 7.5, 250 mM sodium chloride, 30 mM EDTA, 25 mM sodium pyrophosphate, 1% Triton-X 100, 0.5% NP-40, 10% glycerol and 1 mM DTT) supplemented with protease and phosphatase inhibitors (Roche). When subcellular location of Pgam5 was studied, a cell fractionation kit (Abcam, Ab109719) was used according to the manufacturer's instructions. Fractionation and whole-cell lysates were snap frozen and stored at −80° C. until further analysis. Collected lysates were mixed with 10% β-mercaptoethanol Laemmli buffer and denatured for 10 min at 70° C. Equal amounts of protein as assessed by Bradford measurement (Pierce™ Coomassie Plus (Bradford) Assay Reagent, ThermoFisher) were subjected to 10-15% SDS-PAGE, then transferred to […] PVDF membranes (MeckMillipore). Membranes were blocked for 30 mins in PBS-T/5% milk or PBST-T/5% BSA prior to antibody incubation overnight with the following antibodies: β-Actin (Sigma; #A4700), Gapdh (Santacruz; sc32233), Parkin (Santacruz; sc32283), Phospho-β-Catenin (CellSignaling; 9561), TOM20 (CellSignaling; D84TN; 42406S); pStat1 (Cellsignaling; 9167) and PGAM5 (Abcam; ab126534). Afterwards, membranes were incubated for one hour with their respective HRP-conjugated secondary antibodies (Santacruz: sc2314 and sc2313), followed by development using SuperSignal West Pico Chemoluminescence Substrate (ThermoFischer Scientific). 2D densitometry was performed using ImageJ Software (National Institutes of Health, Bethesda, Maryland).

[1] = restimulated with PMA/ionomycin ex vivo

## O=c1oc2cc(O)ccc2c2ccc(O)cc12 [UA, Urolithin A]
APTK-s.c. tumors; CD8+ TIL, UA vs control diet
  mitochondrial content in TIL of APTK tumors: increased
APTK-s.c. tumors; UA-containing vs control diet
  CD4+ TSCM in APTK-induced tumors: no change
  TCF1 expression in tumor infiltrating CD8+ T cells: increased expression
  dendritic cells (DCS), TAMs, or MDSC subsets in TME: no change
APTK-s.c. tumors; UA-containing vs control diet, CD8+ TIL
  CD8+CD44loCD62LhiSca1hi T cells in APTK-induced tumors: marked increase
APTK-s.c. tumors; UA-fed mice, CD8+ TIL
  exhaustion marker CTLA-4 in CD8+ T cells: reduction
  exhaustion marker PD-1 in CD8+ T cells: reduction
  exhaustion marker Tim3 in CD8+ T cells: reduction
APTK-s.c. tumors; UA-supplemented diet vs control food
  CD8+ T cell infiltration in tumors: enhanced
APTK-s.c. tumors; [1]
  induction of IFNg in tumor infiltrating CD8+ T cells: stronger induction
  induction of TNFa in tumor infiltrating CD8+ T cells: stronger induction
T cells; UA treated T cells compared to vehicle controls
  phosphorylation of Stat1: equal phosphorylation
T cells; immunoblot, 24 h, UA 50 μM
  Parkin protein expression: stabilized
T cells; immunoblot, after 6 hours, UA 50 μM
  b-catenin phosphorylation: marked decrease
T cells; sub-cellular fractionations and immunofluorescence, 6 h, UA 50 μM
  Pgam5 localization: rapidly released into the cytoplasma

Source: patent US20260069693A1, “UROLITHINS AND T-CELL MEDIATED IMMUNE RESPONSE” (priority 2022, published 2026)
